ChEMBL document CHEMBL4342403, “New evolutions in the BACE1 inhibitor field from 2014 to 2018” (Bioorg Med Chem Lett, 2019)

What was measured:
[1] = molecular target: T1, Beta-secretase 1 (Homo sapiens, UniProt P56817); experiment: Inhibition of BACE1 in HEK293 cells harboring APP assessed as reduction in amyloidbeta 40 level incubated for 18 to 20 hrs by AlphaLISA Assay; assay type: cell-based
[2] = test system: Rattus norvegicus; experiment: In vivo inhibition of BACE1 in Sprague Dawley rat assessed as reduction in amyloidbeta 40 level in brain at 10 mg/kg, po measured at 3 hrs post dose by ELISA relative to control; assay type: functional
[3] = test system: Rattus norvegicus; experiment: In vivo inhibition of BACE1 in Sprague Dawley rat assessed as reduction in amyloidbeta 40 level in brain at 30 mg/kg, po measured at 3 hrs post dose by ELISA relative to control; assay type: functional
[4] = molecular target: T1, Beta-secretase 1; experiment: Inhibition of BACE1 (unknown origin) assessed as reduction in amyloidbeta 40 level after 24 hrs by cell-based sandwich ELISA
[5] = molecular target: T1, Beta-secretase 1; experiment: Inhibition of BACE1 in human SK-N-BE(2) cells expressing human APP695 assessed as reduction in amyloidbeta level incubated for 18 hrs by sandwich ELISA; assay type: cell-based
[6] = molecular target: Beta-secretase 1 (Rattus norvegicus, UniProt P56819); experiment: Inhibition of BACE1 in Wistar rat neuronal cell suspension after 1 to 3 days by ELISA
[7] = molecular target: T1, Beta-secretase 1; experiment: Inhibition of BACE1 in human SH-SY5Y cells expressing betaAPP assessed as reduction in amyloidbeta (1 to 40 residues) level incubated for 24 hrs by HTRF assay; assay type: cell-based
[8] = molecular target: T1, Beta-secretase 1; experiment: Inhibition of human BACE1 using Biotin-XSEVNLDAEFRHDSGC as substrate incubated for 2 hrs by fluorescence method
[9] = molecular target: T1, Beta-secretase 1; experiment: Inhibition of BACE1 (unknown origin)
[10] = molecular target: T2, Beta-secretase 2 (Homo sapiens, UniProt Q9Y5Z0); experiment: Inhibition of BACE2 (unknown origin)
T2 sequence (Q9Y5Z0 whole entry): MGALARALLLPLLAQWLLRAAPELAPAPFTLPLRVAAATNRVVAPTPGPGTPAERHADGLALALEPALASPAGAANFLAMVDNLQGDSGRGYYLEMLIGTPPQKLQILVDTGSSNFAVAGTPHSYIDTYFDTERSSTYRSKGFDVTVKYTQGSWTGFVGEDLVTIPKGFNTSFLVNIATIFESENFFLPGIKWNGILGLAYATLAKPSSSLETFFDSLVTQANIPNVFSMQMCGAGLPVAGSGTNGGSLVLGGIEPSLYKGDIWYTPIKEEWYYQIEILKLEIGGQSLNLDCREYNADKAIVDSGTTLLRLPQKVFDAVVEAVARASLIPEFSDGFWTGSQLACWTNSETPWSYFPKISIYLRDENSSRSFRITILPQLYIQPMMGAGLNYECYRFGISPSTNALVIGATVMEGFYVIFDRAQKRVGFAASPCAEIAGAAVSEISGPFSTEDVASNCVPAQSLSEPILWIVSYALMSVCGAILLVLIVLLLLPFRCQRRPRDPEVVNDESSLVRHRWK

[11] = molecular target: T1, Beta-secretase 1; experiment: Inhibition of BACE1 (unknown origin) by cell-based assay
[12] = molecular target: T1, Beta-secretase 1; experiment: Inhibition of human BACE1 (1 to 460 residues) expressed in HEK293 cells after 16 to 24 hrs by FRET assay; assay type: cell-based
[13] = molecular target: P-glycoprotein (ABCB1) (Homo sapiens, UniProt P08183); experiment: Substrate activity at p-glycoprotein (unknown origin) assessed as efflux ratio; settings: not told
[14] = molecular target: T2, Beta-secretase 2; experiment: Inhibition of human BACE2 preincubated for 30 mins followed by QSY7- EISEVNLDAEFC-Eu-amide substrate addition and measured after […] by HTRF assay
[15] = molecular target: T1, Beta-secretase 1; experiment: Inhibition of human BACE1 catalytic domain preincubated for 30 mins followed by QSY7-EISEVNLDAEFC-Europium-amide substrate addition and measured after […] by HTRF assay
[16] = Dissociation constant, pKa of the compound; assay type: physicochemical
[17] = molecular target: T2, Beta-secretase 2; experiment: Inhibition of C-terminal His6-tagged human BACE2 expressed in mammalian expression system preincubated for 1 hr followed by substrate addition and measured after 1 hr by FRET assay
[18] = molecular target: T1, Beta-secretase 1; experiment: Inhibition of C-terminal His6-tagged human BACE1 expressed in mammalian expression system preincubated for 1 hr followed by substrate addition and measured after 1 hr by FRET assay
[19] = molecular target: T1, Beta-secretase 1; experiment: Inhibition of human BACE1 using Biotin-XSEVNLDAEFRHDSGC as substrate incubated for […] by fluorescence method
[20] = molecular target: T1, Beta-secretase 1; experiment: Inhibition of human BACE1 expressed in Escherichia coli preincubated for 1 hr followed by Mca-Ser-Glu-Val-Asn-Leu-Asp-Ala-Glu-Phe-Lys(Dnp)-OH substrate addition by spectroflurimetric assay

T1 sequence (P56817 whole entry): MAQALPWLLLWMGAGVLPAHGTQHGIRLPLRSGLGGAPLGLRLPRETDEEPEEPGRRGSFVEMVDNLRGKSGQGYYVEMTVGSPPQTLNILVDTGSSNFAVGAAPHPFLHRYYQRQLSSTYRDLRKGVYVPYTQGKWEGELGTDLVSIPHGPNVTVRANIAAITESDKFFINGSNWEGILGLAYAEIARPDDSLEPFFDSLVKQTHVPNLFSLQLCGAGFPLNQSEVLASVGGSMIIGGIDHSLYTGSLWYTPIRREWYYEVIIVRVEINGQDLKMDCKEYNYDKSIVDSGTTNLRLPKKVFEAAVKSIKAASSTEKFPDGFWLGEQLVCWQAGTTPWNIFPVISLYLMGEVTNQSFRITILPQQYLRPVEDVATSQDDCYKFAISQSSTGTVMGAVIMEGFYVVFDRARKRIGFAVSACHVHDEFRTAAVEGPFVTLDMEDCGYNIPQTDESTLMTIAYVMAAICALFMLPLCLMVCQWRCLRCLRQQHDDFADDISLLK
Beta-secretase 1 (Rattus norvegicus, UniProt P56819), sequence (P56819 whole entry, the tested form may be a part): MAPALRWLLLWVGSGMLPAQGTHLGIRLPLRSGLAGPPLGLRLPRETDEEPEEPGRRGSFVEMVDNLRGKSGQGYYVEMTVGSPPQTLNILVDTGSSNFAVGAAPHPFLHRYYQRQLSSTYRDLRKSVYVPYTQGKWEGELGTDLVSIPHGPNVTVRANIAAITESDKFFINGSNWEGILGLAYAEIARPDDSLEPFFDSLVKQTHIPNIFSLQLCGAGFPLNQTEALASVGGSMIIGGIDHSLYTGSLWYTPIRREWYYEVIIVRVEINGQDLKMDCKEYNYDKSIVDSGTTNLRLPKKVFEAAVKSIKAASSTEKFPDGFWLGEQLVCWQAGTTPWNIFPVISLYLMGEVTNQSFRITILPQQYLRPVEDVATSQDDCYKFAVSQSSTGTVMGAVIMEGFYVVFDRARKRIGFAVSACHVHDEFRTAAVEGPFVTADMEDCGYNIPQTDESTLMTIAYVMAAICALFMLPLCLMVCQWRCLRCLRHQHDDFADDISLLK
P-glycoprotein (ABCB1), sequence (P08183 whole entry): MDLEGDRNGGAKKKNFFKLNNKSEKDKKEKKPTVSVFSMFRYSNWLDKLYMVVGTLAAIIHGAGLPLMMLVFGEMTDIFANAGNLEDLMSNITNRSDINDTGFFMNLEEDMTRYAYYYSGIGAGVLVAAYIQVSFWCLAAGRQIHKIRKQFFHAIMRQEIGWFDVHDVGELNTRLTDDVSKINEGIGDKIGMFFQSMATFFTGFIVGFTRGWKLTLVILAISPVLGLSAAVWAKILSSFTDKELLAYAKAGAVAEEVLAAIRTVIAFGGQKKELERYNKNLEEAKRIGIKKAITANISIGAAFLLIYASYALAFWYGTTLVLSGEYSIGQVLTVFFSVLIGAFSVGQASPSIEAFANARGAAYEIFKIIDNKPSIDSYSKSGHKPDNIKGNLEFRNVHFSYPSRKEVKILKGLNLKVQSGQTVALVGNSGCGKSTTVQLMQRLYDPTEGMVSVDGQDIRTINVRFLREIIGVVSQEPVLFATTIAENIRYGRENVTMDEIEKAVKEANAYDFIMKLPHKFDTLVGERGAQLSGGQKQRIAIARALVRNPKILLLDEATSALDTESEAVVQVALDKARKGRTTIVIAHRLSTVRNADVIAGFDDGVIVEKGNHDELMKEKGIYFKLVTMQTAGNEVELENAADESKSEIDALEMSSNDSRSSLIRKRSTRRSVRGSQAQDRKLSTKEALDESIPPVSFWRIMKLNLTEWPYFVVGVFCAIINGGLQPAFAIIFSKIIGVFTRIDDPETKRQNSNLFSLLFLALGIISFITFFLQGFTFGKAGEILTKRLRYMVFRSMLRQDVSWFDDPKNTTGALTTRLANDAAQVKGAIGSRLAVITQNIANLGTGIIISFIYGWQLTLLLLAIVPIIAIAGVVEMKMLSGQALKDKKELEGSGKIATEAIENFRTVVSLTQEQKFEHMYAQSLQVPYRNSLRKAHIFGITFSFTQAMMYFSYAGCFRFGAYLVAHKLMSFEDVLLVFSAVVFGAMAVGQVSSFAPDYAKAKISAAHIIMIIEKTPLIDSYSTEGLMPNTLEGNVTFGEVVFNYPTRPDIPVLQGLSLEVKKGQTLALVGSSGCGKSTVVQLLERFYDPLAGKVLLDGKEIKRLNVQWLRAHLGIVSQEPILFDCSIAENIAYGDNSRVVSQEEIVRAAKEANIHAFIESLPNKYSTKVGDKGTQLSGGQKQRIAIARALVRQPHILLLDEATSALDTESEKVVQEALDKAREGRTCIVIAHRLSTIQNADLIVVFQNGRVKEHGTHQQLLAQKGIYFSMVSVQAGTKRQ

With Cc1cc(C#N)cnc1C(=O)Nc1ccc(F)c([C@]2(C)CS(=O)(=NCC(F)(F)F)N(C)C(N)=N2)c1 (single isomer, unassigned) the IC50 [1] was 0.99 nM.

In the case of COc1ccc(C(=O)Nc2ccc(F)c([C@]34COC[C@@]3(F)C[C@](C)(F)C(N)=N4)c2)nc1, the inhibition in vivo at 10 mg/kg [2] is reported as 48% and the inhibition in vivo at 30 mg/kg [3] is reported as 64%.

In the case of C#CCOc1cnc(C(=O)Nc2cc(F)c(F)c([C@@]3(CF)N=C(N)S[C@H]4C[C@H]43)c2)cn1, the IC50 [4] is reported as 0.64 nM.

With COc1ncc(C(=O)NC2CC2)c2c1C[C@]1(c3ccc(F)cc3F)N=C(N)SC[C@@H]1C2 the IC50 [5] was 9.6 nM.

NC1=N[C@@]2(c3cccc(NC(=O)c4cnc(C(F)F)cn4)c3)CCO[C@H]2CS1 showed an IC50 [6] of 8 nM.

Work on C[C@H]1SC(N)=N[C@](C)(c2cc(NC(=O)c3cnc(F)cn3)ccc2F)C12CC(F)(F)C2 yielded an IC50 [7] of 5.4 nM and an IC50 [8] of 11.9 nM.

In the case of C[C@@]1(c2cc(NC(=O)c3ccc(C#N)cc3)ccc2F)Cn2cnc(C(F)F)c2C(N)=N1, the IC50 [9] is reported as 3.5 nM, the IC50 [10] is reported as 15.8 nM and the IC50 [11] is reported as 0.95 nM.

For COc1nc(N2C[C@H]3CSC(N)=N[C@@]3(c3ccns3)C2)nc(C)c1F, the IC50 [12] was 172 nM.

For C[C@@]1(c2cc(NC(=O)c3cnc(OCF)cn3)ccc2F)C[C@@H](C(F)F)SC(N)=N1, the efflux ratio [13] was 1.1, the IC50 [9] was 6.23 nM and the IC50 [10] was 0.19 nM.

For COc1cnc(C(=O)Nc2ccc(F)c([C@]34CO[C@H](C(F)(F)F)[C@H]3CSC(N)=N4)c2)cn1, the IC50 [6] was 8 nM.

Compound CN=S1(=O)C[C@@](C)(c2cc(NC(=O)c3ccc(Cl)cn3)ccc2F)N=C(N)N1C (single isomer, unassigned) has a Ki [14] of 1 nM and a Ki [15] of 5 nM.

CN=S1(=O)C[C@@](C)(c2cc(-c3cc(-c4ncc(OC)cn4)no3)ccc2F)N=C(N)N1C (single isomer, unassigned) showed an IC50 [1] of 22 nM.

C[C@@]1(c2cc(-c3cc(-c4cnc(C#N)cn4)no3)ccc2F)C[C@@H](C(F)(F)F)OC(N)=N1 showed an IC50 [1] of 30 nM.

C[C@]1(c2cc(NC(=O)c3ccc(C#N)cn3)ccc2F)N=C(N)O[C@H]2[C@@H]1OCC2(F)F gave an IC50 [7] of 0.391 nM.

CC#CCOc1cnc(C2=Nc3cc([C@]4(C)C[C@@H](C(F)(F)F)OC(N)=N4)c(F)cc3CN2)cn1 gave an IC50 [1] of 9 nM.

NC1=N[C@@]2(c3cc(CNCC(F)(F)F)c(F)cc3F)CO[C@@H](CF)C[C@H]2CS1 gave a pKa [16] of 7.9.

NC1=N[C@](CF)(c2cc(NC(=O)c3cnc(Cl)cn3)ccc2F)[C@@H]2C[C@]2(C(F)F)S1 gave an IC50 [17] of 13.2 nM, an IC50 [4] of 3.7 nM and an IC50 [18] of 1.6 nM.

Work on CN1C[C@@H](c2cc(NC(=O)c3ccc(C#N)cn3)ccc2F)N=C(N)C(C)(C)S1(=O)=O yielded a Ki [14] of 32 nM and a Ki [15] of 22 nM.

In the case of C[C@]1(c2cc(NC(=O)c3ccc(C#N)cn3)ccc2F)N=C(N)OC2(COC2)[C@H]1F, the IC50 [19] is reported as 20.7 nM.

CN1C(N)=N[C@](C)(c2cc(NC(=S)c3ccc(C#N)cn3)ccc2F)CS1(=O)=O gave a Ki [14] of 1 nM and a Ki [15] of 9.1 nM.

C[C@@]1(c2cc(NC(=O)c3ccc(C#N)cn3)ccc2F)CCC(N)=N1 showed an IC50 [20] of 1050 nM and a pKa [16] of 11.1.

COc1cnc(C(=O)Nc2ccnc([C@]34CN(c5ncc(F)cn5)C[C@H]3CSC(N)=N4)c2)cn1 showed an IC50 [12] of 0.9 nM.

For COc1ncc(CC2CCOCC2)c2c1C[C@]1(c3ccc(F)cc3F)N=C(N)SC[C@@H]1C2, the IC50 [5] was 0.76 nM.

For COC[C@H]1SC(N)=N[C@](C)(c2cc(NC(=O)c3ccc(C#N)cn3)ccc2F)[C@H]1F, the IC50 [7] was 1 nM.
